Results reported in US10183015B2, “Heterocyclic compounds and methods of use” (Medivation Technologies LLC, priority 2015, dated 2019).
Values joined by “and” are separate entries in the source; they are usually repeats but may differ in a detail not shown here. Equal entries are not always repeated.

Assays:
Format in all cases: in vivo
[1] = tested on: PERK; experiment: Short-term Paigen-diet NASH mouse model: hepatic PERK gene expression (RT-qPCR); conditions: 21 days
Procedure: To investigate whether Compound #37 prevents the development of pathology associated with NASH and steatosis in an acute exploratory disease model, a study was conducted using a diet-induced acute liver steatosis model in mice. As described below, in this study, C57BL/6J mice were initiated on the Paigen diet and simultaneously treated with Compound #37 (5, 20, and 40 mg/kg/day) or vehicle control (20% HPβCD 10 mL/kg/day) by oral gavage for 21 days.
(§1) After acclimation, 8-week old male C57Bl/6J mice (Charles River) weighing about 25 g were randomized in 4 groups according their body weight and treated once daily around noon by oral gavage with vehicle, or Compound #37 at various for 21 days as follows: Group 1: vehicle-20% (2-hydroxypropyl)-β-cyclodextrin (HP-β-CD) (n=10); Group 2: Compound #37, 5 mg/kg (n=10) Group 3: Compound #37, 20 mg/kg (n=10) Group 4: Compound #37, 40 mg/kg (n=10). During the treatment period, body weight and food intake (measured over 24h) were measured 3 times per week and once a week, respectively. During the acclimation, all mice were fed a standard diet (Special Diets Services RM1 (E), product no. 801492) and tap water ad libitum. After the acclimation period, mice were fed until the end of the experiment with a 60% high fat Paigen diet (60 kcal % fat, 1.25% cholesterol, and 0.5% cholate; D11061901, Research Diet) and tap water ad libitum.
(§2) Gene expression analysis. Hepatic expression levels of genes involved in lipid metabolism (FAS, SREBP1, ACC1, SCD1), cholesterol metabolism (HMG-CoAR, LDLR), SREBP proteolysis (SCAP, INSIG1), ER stress (PERK), oxidative stress (NRF2), inflammation (MCP-1), and fibrosis (collagen 1α1) were quantified by RTqPCR. Expression level was normalized to 18S gene expression and relative expression to vehicle group was calculated with the […] method.

[2] = tested on: IL-6; experiment: Short-term Paigen-diet NASH mouse model: liver IL-6 levels
Procedure: To investigate whether Compound #37 prevents the development of pathology associated with NASH and steatosis in an acute exploratory disease model, a study was conducted using a diet-induced acute liver steatosis model in mice. […]
as §1
The 60% high fat Paigen diet induced accumulation of liver lipids, inflammation, oxidative stress, and then fibrosis.

[3] = tested on: ACC1; experiment: DIN mouse model: hepatic ACC1 gene expression; parameters: key to 2^DDct: expression relative to vehicle group, normalized to 18S; conditions: for 2^DDct / ACC1 / DDct / Dct: Gene Expression: ACC1, 20 mg/kg group; for 18S: Gene Expression: ACC1 table, 18S reference, 20 mg/kg group
Procedure: as §2
(§3) Male C57Bl/6J mice (8 weeks old) were housed in enriched ventilated cages (31×12.5×12.7 cm) throughout the experimental phase. Animals' cages litters were changed at least once a week. Animal were housed 5 per cage on inverted 12-hour light cycle (at 09:00 am lights off), 22±2° C. and 55±10% relative humidity. The acclimation period was 20 days. During the acclimation period, all mice were fed a standard diet (RM1 (E) 801492, SDS) and tap water ad libitum. After the acclimation period, mice were fed with the DIN diet (60% fat, cholesterol enriched) and fructose-enriched tap water ad libitum until the end of the experiment.
(§4) At 6 weeks of diet, mice were 4-hour fasted (09:00 am to 1:00 pm) and blood (150 μl/EDTA) was collected at 01:00 pm by retro-orbital bleeding under isoflurane anesthesia. Mice were then allocated in 2 homogenous groups (n=12/group) according to their plasma levels of ALT (average levels: 685U/L), AST (average levels: 627U/L) and HOMA-IR index (average value: 4.7), into 2 homogenous groups (see values at day 0 in Tables 15A and 15B ALT/AST and Tables 16A and 16B for HOMA-IR). Mice were then treated once daily by oral gavage with vehicle (Group 1) or Compound #37 at 20 mg/kg (Group 2) for 70 days.
(§5) Hepatic expression levels of genes involved in lipid (FAS, SREBP1, ACC1, SCD1), cholesterol metabolism (HMG-CoAR, LDLR), in SREBP proteolysis (SCAP, INSIG1), in ER stress (PERK), oxidative stress (NRF2), and inflammation (MCP-1) were not changed. However, expression of collagen 1α1, involved in liver fibrosis, was reduced by 66% in mice treated with Compound #37 (p<0.05 vs. vehicle).

[4] = tested on: HMGCoA; experiment: DIN mouse model: hepatic HMGCOA gene expression; conditions: liver, 20 mg/kg group
Procedure: as §2, §3, §4, §5

[5] = individual animals, vs vehicle mean, 20 mg/kg

## CC(C)Cc1cc(-c2nc(-c3ccc(NS(=O)(=O)C(F)(F)F)cc3Cl)cs2)ccn1 [Compound 37, N-(3-chloro-4-(2-(2-isobutylpyridin-4-yl)thiazol-4-yl)phenyl)-1,1,1-trifluoromethanesulfonamide]
[1]; 5 mg/kg, group mean, n 10
  ER and oxidative stress gene expression PERK: 2DDct: 0.91
  ER and oxidative stress gene expression PERK: 18S: 12.3
  ER and oxidative stress gene expression PERK: DDct: 0.32
  ER and oxidative stress gene expression PERK: Dct: 15.4
  ER and oxidative stress gene expression PERK: PERK: 27.6
[1]; 5 mg/kg, individual animals
  ER and oxidative stress gene expression PERK: 2DDct: 1.29 and 0.54 and 0.35 and 1.5 and 0.42 and 0.58 and 1.06 and 1.56 and 0.97 and 0.79
  ER and oxidative stress gene expression PERK: 18S: 13.46 and 13.11 and 11.61 and 13.35 (2×) and 12.03 and 11.6 and 11.79 and 11.14 and 11.12
  ER and oxidative stress gene expression PERK: DDct: −0.36 and 0.9 and 1.52 and −0.58 and 1.24 and 0.8 and −0.08 and −0.64 and 0.04 and 0.34
  ER and oxidative stress gene expression PERK: Dct: 14.68 and 15.94 and 16.56 and 14.46 and 16.28 and 15.84 and 14.96 and 14.4 and 15.08 and 15.38
  ER and oxidative stress gene expression PERK: PERK: 28.14 and 29.05 and 28.17 and 27.81 and 28.31 and 29.19 and 26.56 and 26.19 and 26.22 and 26.5
[1]; 20 mg/kg, group mean, n 6
  ER and oxidative stress gene expression PERK: 2DDct: 1.33
  ER and oxidative stress gene expression PERK: 18S: 12.2
  ER and oxidative stress gene expression PERK: DDct: −0.27
  ER and oxidative stress gene expression PERK: Dct: 14.8
  ER and oxidative stress gene expression PERK: PERK: 27
[1]; 20 mg/kg, individual animals
  ER and oxidative stress gene expression PERK: 2DDct: 1.04 and 1.05 and 1.27 and 2.68 and 0.61 and 1.34
  ER and oxidative stress gene expression PERK: 18S: 12.91 and 12.29 and 12.2 and 13.03 and 11.49 and 11.26
  ER and oxidative stress gene expression PERK: DDct: −0.05 and −0.07 and −0.34 and −1.42 and 0.72 and −0.42
  ER and oxidative stress gene expression PERK: Dct: 14.99 and 14.97 and 14.7 and 13.62 and 15.76 and 14.62
  ER and oxidative stress gene expression PERK: PERK: 27.9 and 27.26 and 26.9 and 26.65 and 27.25 and 25.88
[2]; 5 mg/kg, 21 days, group mean
  IL-6 (pg/mg tissue): 1012 pg/mg tissue
[2]; 5 mg/kg, 21 days, individual animals
  IL-6 (pg/mg tissue): 1444 pg/mg tissue and 845 pg/mg tissue and 1107 pg/mg tissue and 650 pg/mg tissue and 1305 pg/mg tissue and 957 pg/mg tissue and 770 pg/mg tissue and 1296 pg/mg tissue and 883 pg/mg tissue and 863 pg/mg tissue
[2]; 20 mg/kg, 21 days, group mean
  IL-6 (pg/mg tissue): 817 pg/mg tissue
[2]; 20 mg/kg, 21 days, individual animals
  IL-6 (pg/mg tissue): 904 pg/mg tissue and 737 pg/mg tissue and 760 pg/mg tissue and 705 pg/mg tissue and 970 pg/mg tissue and 826 pg/mg tissue
[2]; 40 mg/kg, 9 days, group mean
  IL-6 (pg/mg tissue): 669 pg/mg tissue
[2]; 40 mg/kg, 9 days, individual animals
  IL-6 (pg/mg tissue): 1005 pg/mg tissue and 569 pg/mg tissue and 535 pg/mg tissue and 566 pg/mg tissue
[3]; individual animal
  2^DDct: 1.62 and 1.20 and 0.21 and 1.19 and 0.20 and 1.29 and 0.79 and 0.67 and 0.34 and 0.23 and 1.77
  ACC1: 27.74 and 28.17 and 31 and 28.06 and 30.55 and 28.11 and 27.95 and 28.97 and 28.95 and 29.55 and 27.41
  DDct: −0.69 and −0.26 and 2.28 and −0.25 and 2.32 and −0.36 and 0.34 and 0.58 and 1.57 and 2.12 and −0.82
  Dct: 15.19 and 15.62 and 18.16 and 15.63 and 18.2 and 15.52 and 16.22 and 16.46 and 17.45 and 18 and 15.06
[3]; mean, n 11
  2^DDct: 0.86
  ACC1: 28.8
  DDct: 0.62
  Dct: 16.5
  18S: 12.3
[3]; individual animal, 20 mg/kg
  18S: 12.55 (2×) and 12.84 and 12.43 and 12.35 (2×) and 12.59 and 11.73 and 12.51 and 11.5 and 11.55
[4]; individual animals, normalised to 18S, 20 mg/kg
  HMGCOA Dct: 12.8 and 12.14 and 13.78 and 12.65 and 13.57 and 12.83 and 13.03 and 12.86 and 14.49 and 14.63 and 12.37
[4]; [5]
  HMGCOA 2^DDct: 1.34 and 2.12 and 0.68 and 1.49 and 0.79 and 1.31 and 1.14 and 1.28 and 0.41 and 0.38 and 1.8
  HMGCOA DDct: −0.42 and −1.08 and 0.56 and −0.57 and 0.35 and −0.39 and −0.19 and −0.36 and 1.27 and 1.41 and −0.85
[4]; individual animals, 20 mg/kg
  HMGCoA (Ct): 25.35 and 24.69 and 26.62 and 25.08 and 25.92 and 25.42 and 24.76 and 25.37 and 25.99 and 26.18 and 24.72
[4]; mean, n 11
  HMGCOA 2^DDct: 1.16
  HMGCOA DDct: −0.03
  HMGCOA Dct: 13.2
  HMGCoA (Ct): 25.5
